A word on the melting point: it is the temperature, or range, at which the solid turns liquid.

Experimental findings from patent US20090137572A1, “2-substituted-4-heteroaryl-pyrimidines useful for the treatment of proliferative disorders” (priority 2004, published 2009) are described below.

The target of one series is CDK2-cycline E (Homo sapiens, UniProt P24941). In words: Kinase assay (radioactive phosphate incorporation), CDK2-cyclin E. The settings on record: read-out: Kinase Inhibition pIC50 CDK2-cycline E (converted). In kind it is biochemical. On the procedure: (§1) Kinase assays. The compounds of the invention above were investigated for their ability to inhibit the enzymatic activity of various protein kinases (Table 2). This was achieved by measurement of incorporation of radioactive phosphate from ATP into appropriate polypeptide substrates. Recombinant protein kinases and kinase complexes were produced or obtained commercially. Assays were performed using 96-well plates and appropriate assay buffers (typically 25 mM β-glycerophosphate, 20 mM MOPS, 5 mM EGTA, 1 mM DTT, 1 mM […], pH 7.4), into which were added 2-4 μg of active enzyme with appropriate substrates. The reactions were initiated by addition of Mg/ATP mix (15 mM MgCl2+100 μM ATP with 30-50 kBq per well of [γ-^32P]-ATP) and mixtures incubated as required at 30° C. Reactions were stopped on ice, followed by filtration through p81 filterplates or GF/C filterplates (Whatman Polyfiltronics, Kent, UK). After washing 3 times with 75 mM aq orthophosphoric acid, plates were dried, scintillant added and incorporated radioactivity measured in a scintillation counter (TopCount, Packard Instruments, Pangbourne, Berks, UK). Compounds for kinase assay were made up as 10 mM stocks in DMSO and diluted into 10% DMSO in assay buffer.

In the next series the target is CDK9/cyclin T1 (Homo sapiens, UniProt P50750). In words: CDK 9 assay (CTD peptide substrate). The settings on record: read-out: Kinase Inhibition pIC50 CDK9-cyclin T1 (converted). In kind it is biochemical. On the procedure: as §1
Chain of CDK9/cyclin T1 (P50750 whole entry): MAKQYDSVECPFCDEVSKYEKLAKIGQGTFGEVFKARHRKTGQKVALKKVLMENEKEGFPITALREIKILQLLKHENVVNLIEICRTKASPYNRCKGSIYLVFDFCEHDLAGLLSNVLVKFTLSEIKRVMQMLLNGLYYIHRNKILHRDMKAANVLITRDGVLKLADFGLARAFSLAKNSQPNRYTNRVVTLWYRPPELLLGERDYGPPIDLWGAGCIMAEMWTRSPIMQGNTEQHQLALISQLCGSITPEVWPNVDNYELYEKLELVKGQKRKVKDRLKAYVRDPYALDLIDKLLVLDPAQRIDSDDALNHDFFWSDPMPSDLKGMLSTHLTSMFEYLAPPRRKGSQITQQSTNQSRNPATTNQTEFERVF
Chain of CDK9/cyclin T1 (O60563 whole entry partner): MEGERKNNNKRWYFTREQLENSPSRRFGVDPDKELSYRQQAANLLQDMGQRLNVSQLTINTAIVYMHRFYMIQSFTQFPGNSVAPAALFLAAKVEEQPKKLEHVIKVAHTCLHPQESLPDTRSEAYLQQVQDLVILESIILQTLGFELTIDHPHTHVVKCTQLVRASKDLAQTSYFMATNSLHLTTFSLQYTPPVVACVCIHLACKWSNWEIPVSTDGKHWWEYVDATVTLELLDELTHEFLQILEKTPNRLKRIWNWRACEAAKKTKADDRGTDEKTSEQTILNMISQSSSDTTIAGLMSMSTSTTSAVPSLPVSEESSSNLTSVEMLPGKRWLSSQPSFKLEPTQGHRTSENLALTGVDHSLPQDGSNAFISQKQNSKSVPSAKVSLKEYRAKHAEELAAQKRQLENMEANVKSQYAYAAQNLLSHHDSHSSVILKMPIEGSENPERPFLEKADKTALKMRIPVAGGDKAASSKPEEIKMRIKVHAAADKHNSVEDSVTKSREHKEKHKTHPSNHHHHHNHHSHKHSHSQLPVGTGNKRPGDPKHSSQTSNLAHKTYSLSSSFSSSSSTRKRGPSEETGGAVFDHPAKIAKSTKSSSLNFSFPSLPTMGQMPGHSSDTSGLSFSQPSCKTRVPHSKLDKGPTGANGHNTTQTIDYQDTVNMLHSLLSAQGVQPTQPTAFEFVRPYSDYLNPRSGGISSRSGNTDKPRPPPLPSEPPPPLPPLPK
(§2) CDK 7 and 9 assays. CTD peptide substrate (biotinyl-Abx-(Tyr-Ser-Pro-Thr-Ser-Pro-Ser)4-NH2; 1-2 mg/mL) and recombinant human CDK7/cyclin H, CDK9/cyclin T1, or CDK9/cyclin K (0.5-2 μg) were incubated for 45 min at 30° C. in the presence of varying amounts of test compound in 20 mM MOPS pH 7.2, 25 mM β-glycerophosphate, 5 mM EGTA, 1 mM DTT, 1 mM sodium vanadate, 15 mM MgCl2, and 100 μM ATP (containing a trace amount of ^32PγATP) in a total volume of 25 μL in a 96-well microtiter plate. The reaction was stopped by placing the plate on ice for 2 min. Avidin (50 μg) was added to each well, and the plate was incubated at room temp for 30 min. The samples were transferred to a 96-well P81 filter plate, and washed (4×200 μL per well) with 75 mM phosphoric acid. Microscint 40 scintillation liquid (50 μL) was added to each well, and the amount of ^32P incorporation for each sample was measured using a Packard Topcount microplate scintillation counter.

A further series has as its target T1, Aurora A kinase (Homo sapiens, UniProt O14965).
T1 construct: purchased
T1 sequence (O14965 1-403): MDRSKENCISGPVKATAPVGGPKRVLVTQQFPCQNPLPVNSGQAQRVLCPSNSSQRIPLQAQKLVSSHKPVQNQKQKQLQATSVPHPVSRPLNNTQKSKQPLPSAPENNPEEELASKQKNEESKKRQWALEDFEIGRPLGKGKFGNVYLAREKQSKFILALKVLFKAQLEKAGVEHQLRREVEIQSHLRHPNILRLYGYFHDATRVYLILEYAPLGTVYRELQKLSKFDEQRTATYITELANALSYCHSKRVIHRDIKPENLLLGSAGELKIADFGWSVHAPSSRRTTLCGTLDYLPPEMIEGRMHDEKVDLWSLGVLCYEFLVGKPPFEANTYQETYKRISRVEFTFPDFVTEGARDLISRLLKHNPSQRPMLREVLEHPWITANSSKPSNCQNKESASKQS
In words: Aurora-A (human) kinase assay (Kemptide substrate). In kind it is biochemical. The settings on record: pIC50 is -log(IC50, M); 15 μM ATP; read-out: Kinase Inhibition pIC50 Aurora A kinase (converted). In short, it runs like this:
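Radiometric filter-binding assay: commercial aurora-A kinase (5-10 ng) with 200 μM Kemptide in MOPS/EDTA pH 7.0, started with 10 mM Mg acetate and 15 μM ATP plus [γ-33P]-ATP. Incubated 40 min at room temperature, stopped with phosphoric acid, incorporated 33P counted by scintillation.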

The target of series [1] is T2, Flt3 (FMS-like tyrosine kinase-3) (Homo sapiens, UniProt P36888).
T2 sequence (P36888 27-993): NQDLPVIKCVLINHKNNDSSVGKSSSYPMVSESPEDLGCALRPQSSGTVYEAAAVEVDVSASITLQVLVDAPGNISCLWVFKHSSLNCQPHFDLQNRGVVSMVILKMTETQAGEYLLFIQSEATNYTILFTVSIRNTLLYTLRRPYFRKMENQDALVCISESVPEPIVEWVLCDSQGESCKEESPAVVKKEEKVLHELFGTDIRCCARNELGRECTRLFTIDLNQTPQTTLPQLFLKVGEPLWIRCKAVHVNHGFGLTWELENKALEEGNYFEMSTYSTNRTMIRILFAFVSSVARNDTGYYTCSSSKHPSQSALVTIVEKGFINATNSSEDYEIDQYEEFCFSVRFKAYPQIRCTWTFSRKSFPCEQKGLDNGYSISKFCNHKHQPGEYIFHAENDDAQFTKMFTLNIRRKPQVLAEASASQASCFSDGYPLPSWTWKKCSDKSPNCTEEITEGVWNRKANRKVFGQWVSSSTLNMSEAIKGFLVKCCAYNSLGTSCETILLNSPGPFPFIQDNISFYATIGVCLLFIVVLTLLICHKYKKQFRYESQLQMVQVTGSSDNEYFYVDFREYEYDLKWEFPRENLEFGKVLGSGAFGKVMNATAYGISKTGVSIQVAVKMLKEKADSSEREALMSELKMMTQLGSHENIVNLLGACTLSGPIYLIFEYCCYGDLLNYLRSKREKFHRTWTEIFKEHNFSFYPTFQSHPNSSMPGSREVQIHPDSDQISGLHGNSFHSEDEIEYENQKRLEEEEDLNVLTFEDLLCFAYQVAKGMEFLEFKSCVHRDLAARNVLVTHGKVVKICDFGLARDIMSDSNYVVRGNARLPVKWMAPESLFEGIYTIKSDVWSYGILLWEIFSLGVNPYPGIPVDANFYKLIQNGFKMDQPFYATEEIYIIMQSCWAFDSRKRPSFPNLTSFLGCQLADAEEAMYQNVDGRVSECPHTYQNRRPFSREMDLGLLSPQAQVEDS
In words: Kinase assay (radioactive phosphate incorporation), Flt3. Particulars: pIC50 is -log(IC50, M), read-out: Kinase Inhibition pIC50 Flt3 (converted). In kind it is biochemical. On the procedure: as §1

A further series has as its target CDK7/cyclin H (Homo sapiens, UniProt P50613). In words: CDK 7 assay (CTD peptide substrate). In kind it is biochemical. The settings on record: read-out: Kinase Inhibition pIC50 CDK7-cyclin H (converted). On the procedure: as §1, §2

Chain of CDK7/cyclin H (P50613 whole entry): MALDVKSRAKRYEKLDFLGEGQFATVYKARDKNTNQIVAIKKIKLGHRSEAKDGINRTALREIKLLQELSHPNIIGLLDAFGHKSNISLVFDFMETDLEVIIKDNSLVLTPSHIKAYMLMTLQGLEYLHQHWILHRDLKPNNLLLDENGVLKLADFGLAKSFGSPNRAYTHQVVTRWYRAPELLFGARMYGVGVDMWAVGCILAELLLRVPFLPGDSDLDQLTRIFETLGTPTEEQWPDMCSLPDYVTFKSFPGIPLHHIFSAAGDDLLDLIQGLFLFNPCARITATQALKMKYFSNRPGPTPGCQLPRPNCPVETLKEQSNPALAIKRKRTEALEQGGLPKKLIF
Chain of CDK7/cyclin H (P51946 whole entry partner): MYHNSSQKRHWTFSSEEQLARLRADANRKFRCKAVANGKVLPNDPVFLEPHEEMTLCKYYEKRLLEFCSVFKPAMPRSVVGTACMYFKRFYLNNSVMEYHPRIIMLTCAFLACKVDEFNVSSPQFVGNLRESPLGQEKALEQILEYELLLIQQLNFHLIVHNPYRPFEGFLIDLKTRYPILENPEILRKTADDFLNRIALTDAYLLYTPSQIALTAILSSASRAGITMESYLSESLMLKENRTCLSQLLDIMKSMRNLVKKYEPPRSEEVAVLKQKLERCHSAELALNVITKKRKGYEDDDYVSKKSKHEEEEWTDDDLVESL

Take `CCNc1nc(C)c(-c2ccnc(Nc3ccc(N4CC(C)OC(C)C4)cc3)n2)s1` (stereo not shown) [Compound 169, [4-(2,6-Dimethyl-morpholin-4-yl)-phenyl]-[4-(2-ethylamino-4-methyl-thiazol-5-yl)-pyrimidin-2-yl]-amine]: the IC50 on CDK2-cycline E was 1580 nM; on CDK9/cyclin T1, 3160 nM; on Aurora A kinase, 50.1 nM; in series [1], 39.8 nM.
Turning to `COc1cc(Nc2nccc(-c3sc(Nc4ccccc4)nc3C)n2)cc(OC)c1` [Compound 171, (3,5-Dimethoxy-phenyl)-[4-(4-methyl-2-phenylamino-thiazol-5-yl)-pyrimidin-2-yl]-amine], the melting point lay in the range of 191 to 194 °C.
Take `COc1cc(Nc2nccc(-c3sc(N)nc3C)n2)cc(OC)c1OC` [Compound 168, [4-(2-Amino-4-methyl-thiazol-5-yl)-pyrimidin-2-yl]-(3,4,5-trimethoxy-phenyl)-amine]: the IC50 on CDK2-cycline E was 398 nM; on CDK9/cyclin T1 it was 316 nM; on Aurora A kinase it was 31.6 nM; at CDK7/cyclin H, 1260 nM; in series [1], 5.01 nM.
Turning to `Cc1nc(C)c(-c2ccnc(Nc3ccc(O)c(CN4CCOCC4)c3)n2)s1` [Compound 151, 4-[4-(2,4-Dimethyl-thiazol-5-yl)-pyrimidin-2-ylamino]-2-morpholin-4-ylmethyl-phenol], the figures for the IC50 (at CDK2-cycline E; on Aurora A kinase; in series [1]) were 200 nM, 63.1 nM and 63.1 nM, respectively.
Regarding `Cc1nc(N(C)c2cccnc2)sc1-c1ccnc(Nc2ccc(N3CCOCC3)cc2)n1` [Compound 162, {4-[4-Methyl-2-(methyl-pyridin-3-yl-amino)-thiazol-5-yl]-pyrimidin-2-yl}-(4-morpholin-4-yl-phenyl)-amine], the IC50 was 3160 nM at CDK2-cycline E, 3160 nM at CDK9/cyclin T1, 126 nM at Aurora A kinase and 63.1 nM in series [1].
As to `COCCOC(=O)Cc1cccc(Nc2nccc(-c3sc(N)nc3C)n2)c1` [Compound 1, {3-[4-(2-Amino-4-methyl-thiazol-5-yl)-pyrimidin-2-ylamino]-phenyl}-acetic acid 2-methoxy-ethyl ester], the IC50 on CDK2-cycline E was 1000 nM; on CDK7/cyclin H, 3160 nM; in series [1], 126 nM.
`Cc1nc(C)c(-c2ccnc(Nc3cccc(N4CCOCC4)c3)n2)s1` [Compound 152, [4-(2,4-Dimethyl-thiazol-5-yl)-pyrimidin-2-yl]-(3-morpholin-4-yl-phenyl)-amine]: the IC50 on CDK2-cycline E is 316 nM; at Aurora A kinase it was 50.1 nM; in series [1], 31.6 nM.
As for `Cc1nc(C)c(-c2ccnc(Nc3cc(CO)cc(CO)c3)n2)s1` [Compound 47, {3-[4-(2,4-Dimethyl-thiazol-5-yl)-pyrimidin-2-ylamino]-5-hydroxymethyl-phenyl}-methanol], the IC50 in series [1] is 200 nM.
Regarding `COc1cc(Nc2nccc(-c3sc(-c4cccnc4)nc3C)n2)cc(OC)c1OC` [Compound 154, [4-(4-Methyl-2-pyridin-3-yl-thiazol-5-yl)-pyrimidin-2-yl]-(3,4,5-trimethoxy-phenyl)-amine], the results for the IC50 (at Aurora A kinase; in series [1]) were 79.4 nM and 100 nM, respectively.
Consider `Cc1nc(C)c(-c2ccnc(Nc3ccc(N4CC(C)OC(C)C4)cc3)n2)s1` (stereo not shown) [Compound 121, [4-(2,6-Dimethyl-morpholin-4-yl)-phenyl]-[4-(2,4-dimethyl-thiazol-5-yl)-pyrimidin-2-yl]-amine], for which the IC50 at CDK2-cycline E is 5010 nM; on CDK9/cyclin T1, 3980 nM; at Aurora A kinase, 39.8 nM; in series [1], 398 nM.
Turning to `COc1cc(Nc2nccc(-c3sc(C)nc3C)n2)cc(OC)c1` [Compound 175, (3,5-Dimethoxy-phenyl)-[4-(2,4-dimethyl-thiazol-5-yl)-pyrimidin-2-yl]-amine], the IC50 at CDK2-cycline E is 1260 nM; on CDK9/cyclin T1, 1580 nM; at Aurora A kinase, 79.4 nM; on CDK7/cyclin H it was 5010 nM; in series [1], 39.8 nM.
Regarding `Cc1nc(C)c(-c2ccnc(Nc3cccc(CN4CCOCC4)c3)n2)s1` [Compound 150, [4-(2,4-Dimethyl-thiazol-5-yl)-pyrimidin-2-yl]-(3-morpholin-4-ylmethyl-phenyl)-amine], the IC50 was 1260 nM on CDK2-cycline E, 158 nM at Aurora A kinase and 126 nM in series [1].
Consider `COc1cc(Nc2nccc(-c3sc(C)nc3C)n2)cc(OC)c1OC` [Compound 25, [4-(2,4-Dimethyl-thiazol-5-yl)-pyrimidin-2-yl]-(3,4,5-trimethoxy-phenyl)-amine], for which the IC50 at CDK9/cyclin T1 was 2000 nM; on Aurora A kinase, 20 nM; on CDK7/cyclin H, 3160 nM; in series [1], 63.1 nM.
As for `COc1cc(Nc2nccc(-c3sc(-c4cccnc4)nc3C)n2)ccc1N1CCOCC1` [Compound 156, (3-Methoxy-4-morpholin-4-yl-phenyl)-[4-(4-methyl-2-pyridin-3-yl-thiazol-5-yl)-pyrimidin-2-yl]-amine], the IC50 (on Aurora A kinase; in series [1]) was 100 nM each time.
`CNc1nc(C)c(-c2ccnc(Nc3cc(OC)cc(OC)c3)n2)s1` [Compound 170, (3,5-Dimethoxy-phenyl)-[4-(4-methyl-2-methylamino-thiazol-5-yl)-pyrimidin-2-yl]-amine]: the results for the IC50 (at CDK2-cycline E; at Aurora A kinase; in series [1]) were 316 nM, 63.1 nM and 10 nM, respectively.
As to `Cc1nc(C)c(-c2ccnc(Nc3ccc(CN4CCOCC4)cc3)n2)s1` [Compound 174, [4-(2,4-Dimethyl-thiazol-5-yl)-pyrimidin-2-yl]-(4-morpholin-4-ylmethyl-phenyl)-amine], the IC50 at CDK2-cycline E was 1260 nM; on CDK9/cyclin T1 it was 1000 nM; at Aurora A kinase, 100 nM; on CDK7/cyclin H it was 251 nM; in series [1], 158 nM.
